From patent US10435372B2, “Use of phenylpyrazolin-3-carboxylates for improving plant yield” (BAYER INTELLECTUAL PROPERTY GMBH, priority 2011, dated 2019)

Assays:
Type in all cases: in vivo
spring wheat [1] = test: Field trial: grain yield of spring wheat, postemergence treatment with MPR + epoxiconazole; details: EPC 125, MPR + EPC 100 + 125 g ai/ha
Text: (§1) The applications have been done with seed treatment, pre- or post-emergence treatments straight (alone, 1 application) or sequential treatments e.g. seed treatment followed by pre-emergence and/or post-emergence spray applications. The pre- or post-emergence applications were made with spray applications using 100-300 l/water per hectare. The growth stage of the crops species at the time of application are reported in the result tables. The dose rates of the herbicidal active ingredients applied alone respective in sequential application are also described in the result tables. The assessments have been done via visual ratings (0-100% scale) or counting. The trials have been harvested after crops reached the full maturity. After the harvest the total weight of kernels/seeds/beets per plot was measured. The results are reported as means over 2-4 replications. The time between applications and assessments or countings/harvest are described in the result tables as well.

[2] = test system: spring oilseed rape (canola); test: Field trial: grain yield of spring oilseed rape (canola), postemergence treatment with MPR + tebuconazole; details: TBC 150, MPR + TBC 100 + 150 g ai/ha
Text: as §1

winter wheat [3] = test: Field trial: grain yield of winter wheat, postemergence treatment with mefenpyr-diethyl
Text: (§2) The trials have been carried out under natural field conditions (plot trials, 10 square meter plots, 2-4 replications).
(§3) The applications have been done with seed treatment, pre- or post-emergence treatments straight (alone, 1 application) or sequential treatments e.g. seed treatment followed by pre-emergence and/or post-emergence spray applications. The pre- or post-emergence applications were made with spray applications using 100-300 l/water per hectare. The growth stage of the crops species at the time of application are reported in the result tables. The dose rates of the herbicidal active ingredients applied alone respective in sequential application are also described in the result tables.
(§4) The assessments have been done via visual ratings (0-100% scale) or counting. The trials have been harvested after crops reached the full maturity. After the harvest the total weight of kernels/seeds/beets per plot was measured. The results are reported as means over 2-4 replications. The time between applications and assessments or countings/harvest are described in the result tables as well.

sugarbeet = test: Field trial: beet yield of sugarbeet, sequential application of mefenpyr-diethyl; details: 0.015 mg ai/seed fb 3 × 50 g ai/ha post
Text: as §2, §3, §4
(§5) The active ingredients have been applied to the untreated, dry seeds together with a carrier. After a short period of time to let the seeds dry, they were ready to be sown in the pot or field using standard equipments.

durum wheat = test: Field trial: grain yield of durum wheat, seed treatment with mefenpyr-diethyl
Text: as §2, §3, §4, §5

sugarbeets [4] = test: Field trial: sugar yield of sugarbeets, sequential application of mefenpyr-diethyl; details: 0.015 mg ai/seed fb 3 × 50 g ai/ha post
Text: as §2, §3, §4, §5

[5] = test system: winter oilseed rape (canola); test: Field trial: grain yield of winter oilseed rape (canola), sequential application of mefenpyr-diethyl; details: 3 g ai/kg seed fb 3 × 50 g ai/ha post
Text: as §2, §3, §4, §5

spring wheat [6] = test: Field trial: grain yield of spring wheat, postemergence treatment with mefenpyr-diethyl
Text: as §2, §3, §4

sugarbeets [7] = test: Field trial: emergence of sugarbeets, seed treatment with MPR; details: seed treatment 0.015 mg ai/seed, 28 days after planting
Text: as §2, §3, §4, §5

winter barley = test: Field trial: grain yield of winter barley, sequential application of MPR; details: 0.5 g ai/kg seed fb 4 × 50 g ai/ha post
Text: as §2, §3, §4, §5

winter wheat [8] = test: Field trial: emergence (number of plants) of winter wheat, pre-emergence application of mefenpyr-diethyl; details: 11 days after application
Text: as §2, §3, §4

[9] = grain yield relative to UTC = 100%

With `Fc1ccc([C@]2(Cn3cncn3)O[C@H]2c2ccccc2Cl)cc1` (racemic) [EPC, epoxiconazole] the Relative % (spring wheat [1]; [9]) was 109.7%, the “Difference (%) vs. UTC” value (spring wheat [1]; grain yield) was “+9.7%” and the “Yield (grain yield at harvest)” value (spring wheat [1]; spring wheat, post-emergence spring, flag leaf sheath opening, harvest 55 days after application, UTC 1.84) was 2.02 t/ha.
`CC(C)(C)C(O)(CCc1ccc(Cl)cc1)Cn1cncn1` (stereo not drawn) [TBC, tebuconazole] was tested, and the Relative % [2, 9] was 102%, the “Difference (%) vs. UTC” value ([2]; grain yield) was “+2%” and the “Yield (grain yield at harvest)” value ([2]; spring oilseed rape, post-emergence spring, beginning of flowering, harvest 92 days after application, UTC 3.91) was 3.98 t/ha.
With `CCOC(=O)C1=NN(c2ccc(Cl)cc2Cl)C(C)(C(=O)OCC)C1` (stereo not drawn) [MPR, ethyl 1-(2,4-dichlorophenyl)-5-(ethoxycarbonyl)-5-methyl-2-pyrazoline-3-carboxylate] the Relative % (winter wheat [3]; grain yield relative to UTC = 100%, 100 g ai/ha post-emergence, 84 days after application) was 106.3%, the “Difference (%) vs. UTC” value (winter wheat [3]; grain yield, 100 g ai/ha post-emergence, 84 days after application) was “+6.3%” and the “Yield (grain yield at harvest)” value (winter wheat [3]; winter wheat, 100 g ai/ha post-emergence spring, beginning of stem elongation, harvest 84 days after application, UTC 9.52) was 10.12 t/ha. For the same compound, the Relative (sugarbeet; beet yield relative to UTC = 100%) was 108.1%, the “Difference (%) vs. UTC” value (sugarbeet; beet yield) was “+8.1%” and the “Yield (yield of beets by weight at harvest)” value (sugarbeet; sugarbeet, harvest 162 days after last application, UTC 58.7) was 63.5 t/ha. For the same compound, the “Yield (grain yield at harvest)” value (durum wheat; durum wheat, seed treatment 0.5 g ai/kg seed prior planting, harvest 158 days after application, UTC 4.45) was 4.97 t/ha, the Relative % (durum wheat; grain yield relative to UTC = 100%, seed treatment 0.5 g ai/kg seed) was 111.7% and the “Difference (%) vs. UTC” value (durum wheat; grain yield, seed treatment 0.5 g ai/kg seed) was “+11.7%”. The Relative (sugarbeets [4]; sugar yield relative to UTC = 100%) was 106.1%, the “Difference (%) vs. UTC” value (sugarbeets [4]; sugar yield) was “+6.1%” and the “Sugar Yield (by weight at harvest)” value (sugarbeets [4]; sugarbeets, harvest 162 days after the last application, UTC 5.70) was 6.05 t/ha. For the same compound, the Relative [5, 9] was 107%, the “Difference (%) vs. UTC” value ([5]; grain yield) was “+7%” and the “Yield (grain yield at harvest)” value ([5]; winter oilseed rape, harvest 102 days after the last application, UTC 3.60) was 3.85 t/ha. For the same compound, the Relative % (spring wheat [6]; grain yield relative to UTC = 100%, 100 g ai/ha post-emergence, 72 days after application) was 119.2%, the “Difference (%) vs. UTC” value (spring wheat [6]; grain yield, 100 g ai/ha post-emergence, 72 days after application) was “+19.2%” and the “Yield (grain yield at harvest)” value (spring wheat [6]; spring wheat, 100 g ai/ha post-emergence spring, flag leaf/beginning of ear heading, harvest 72 days after application, UTC 6.06) was 7.16 t/ha. For the same compound, the Relative (sugarbeets [7]; emerged plants relative to UTC = 100%) was 109.2%, the “Difference (%) vs. UTC” value (sugarbeets [7]; emerged plants) was “+9.2%” and the “plants/18 row meters (emergence, counting)” value (sugarbeets [7]; sugarbeets, UTC 65) was 71 plants/18 row meters. For the same compound, the Relative (winter barley; [9]) was 104%, the “Difference (%) vs. UTC” value (winter barley; grain yield) was “+4%” and the “Yield (grain yield at harvest)” value (winter barley; winter barley, harvest 74 days after the last application, UTC 10.01) was 10.45 t/ha. The Relative % (winter wheat [8]; number of plants relative to UTC = 100%, pre-emergence, dose 100) was 107.4%, the “Difference (%) vs. UTC” value (winter wheat [8]; number of plants, pre-emergence, dose 100) was “+7.4%” and the “Yield [plants/row meter] (number of plants, increased emergence)” value (winter wheat [8]; winter wheat, pre-emergence treatment, dose 100 g ai/ha, UTC 34.2) was 36.8 plants/row meter.
